Values after ≈ are worked out from the molar mass of the structure shown.
What was measured:
[1] = solubility data in some typical Des at 40° C.; assay type: physicochemical; conditions: for solubility in GCH / solubility in H2O / solubility in LGH / solubility in PdCH / solubility in SoCH: n = 3
[2] = solubility of flavonoids in naturally occurring deep eutectic solvents; assay type: physicochemical
Description: First the solubility of natural products, which are not soluble in water, was evaluated in a few selected natural deep eutectic solvents. Several flavonoids were chosen as the natural water-insoluble products, because they are one of the most abundant water-insoluble plant secondary metabolites. Up to now more than 500 flavonoids have been known. Most of these flavonoids occur in their glycosides forms (bounded to a sugar molecule) in plants. In spite of large abundance of flavonoids in plants, both the glycoside and the aglycone (non-sugar) part are not soluble in water. […] The structure of these flavonoids are shown below.

[3] = solvent GCH (Glc:Ch:H2O 1:2.5:2.5)
[4] = solvent LGH (Lac:Glc:H2O 5:1:2)
[5] = solvent PdCH (1,2Prop:Ch:H20 1:1:1)
[6] = deep eutectic solvent LGH, organic solvent or mixture, solvent LGH (Lac:Glc:H2O 5:1:2), n = 3, read-out: solubility in LGH
[7] = deep eutectic solvent PdCH, organic solvent or mixture, solvent PdCH (1,2Prop:Ch:H20 1:1:1), n = 3, read-out: solubility in PdCH
[8] = deep eutectic solvent SoCH, organic solvent or mixture, solvent SoCH (So:Ch:H2O), n = 3, read-out: solubility in SoCH
[9] = deep eutectic solvent GCH, organic solvent or mixture, solvent GCH (Glc:Ch:H2O 1:2.5:2.5), n = 3, read-out: solubility in GCH
[10] = organic solvent or mixture, Solubility in Fructose + Choline chloride
[11] = organic solvent or mixture, Solubility in Glucose + Choline chloride

solubility in GCH [1, 3]	solubility in H2O ([1]; solvent H2O)	solubility in LGH [1, 4]	solubility in PdCH [1, 5]	solubility in SoCH ([1]; solvent SoCH (So:Ch:H2O))	solubility [1, 6]	solubility [1, 7]	solubility [1, 8]	Compound	solubility [1, 9]	solubility [2, 10]	solubility [2, 11]	solubility ([2]; water, Solubility in Water)	further results
5.85 ± 0.42 mg/mL (≈ 13.8 mM)	0.15 ± 0.00 mg/mL (≈ 0.353 mM)	1.93 ± 0.31 mg/mL (≈ 4.55 mM)	78.42 ± 14.45 mg/mL (≈ 185 mM)	1.70 ± 0.01 mg/mL (≈ 4.01 mM)				CC1C(=O)OC2C(O)C34C5CC(C(C)(C)C)C36C(OC(=O)C6O)OC4(C(=O)O5)C12O (centres unmarked) [ginkgolide B]					
0.83 ± 0.16 mg/mL (≈ 0.972 mM)					5.39 ± 0.55 mg/mL (≈ 6.31 mM)	11.7 ± 0.68 mg/mL (≈ 13.7 mM)	0.59 ± 0.01 mg/mL (≈ 0.691 mM)	CC(=O)O[C@H]1C(=O)[C@@]2(C)[C@H]([C@H](OC(=O)c3ccccc3)[C@]3(O)C[C@H](OC(=O)[C@H](O)[C@@H](NC(=O)c4ccccc4)c4ccccc4)C(C)=C1C3(C)C)[C@]1(OC(C)=O)CO[C@@H]1C[C@@H]2O [paclitaxel]					
27.20 ± 0.39 mg/mL (≈ 29.9 mM)	1.43 ± 0.01 mg/mL (≈ 1.57 mM)	1.24 ± 0.21 mg/mL (≈ 1.36 mM)	22.47 ± 1.00 mg/mL (≈ 24.7 mM)	14.05 ± 0.66 mg/mL (≈ 15.4 mM)				O=C(/C=C/c1ccc(O)cc1)C1=C(O)[C@](O)([C@@H]2O[C@H](CO)[C@@H](O)[C@H](O)[C@H]2O)C(O)=C(/C=C2/C(=O)C(C(=O)/C=C/c3ccc(O)cc3)=C(O)[C@@](O)([C@@H]3O[C@H](CO)[C@@H](O)[C@H](O)[C@H]3O)C2=O)C1=O [carthamin]					
					1.72 ± 0.09 mg/mL (≈ 5.69 mM)	205 ± 7.31 mg/mL (≈ 679 mM)	146 ± 2.82 mg/mL (≈ 483 mM)	O=c1c(O)c(-c2ccc(O)c(O)c2)oc2cc(O)cc(O)c12 [quercetin]	20.1 ± 0.41 mg/mL (≈ 66.4 mM)	23.3 ± 2.54 mg/mL	21.6 ± 0.94 mg/mL	0.3 ± 0.002 mg/mL (≈ 0.993 mM)	Solubility in Sucrose + Choline chloride [2]: 15.63 ± 0.57 mg/mL
								C[C@@H]1O[C@@H](Oc2c(-c3ccc(O)c(O)c3)oc3cc(O)cc(O)c3c2=O)[C@H](O)[C@H](O)[C@H]1O [Quercitrin, quercetin-3-O-rhamnoside]					solubility ([2]; organic solvent or mixture, deep eutectic solvent Fructose + Choline chloride, read-out: Solubility in Fructose + Choline chloride): 11.2 ± 0.64 mg/mL; solubility ([2]; organic solvent or mixture, deep eutectic solvent Glucose + Choline chloride, read-out: Solubility in Glucose + Choline chloride): 7.81 ± 0.2 mg/mL; solubility ([2]; organic solvent or mixture, deep eutectic solvent Sucrose + Choline chloride, read-out: Solubility in Sucrose + Choline chloride): 12.7 ± 0.38 mg/mL; solubility ([2]; water, read-out: Solubility in Water): 0.159 ± 0.001 mg/mL (≈ 0.355 mM)

Compound	solubility in GCH [1, 3]	solubility in H2O ([1]; solvent H2O)	solubility in LGH [1, 4]	solubility in PdCH [1, 5]	solubility in SoCH ([1]; solvent SoCH (So:Ch:H2O))	solubility [1, 6]	solubility [1, 7]	solubility [1, 8]	solubility [1, 9]	solubility [2, 10]	solubility [2, 11]	solubility ([2]; water, Solubility in Water)	further results
C[C@@H]1O[C@@H](OC[C@H]2O[C@@H](Oc3c(-c4ccc(O)c(O)c4)oc4cc(O)cc(O)c4c3=O)[C@H](O)[C@@H](O)[C@@H]2O)[C@H](O)[C@H](O)[C@H]1O [rutin, quercetin-3-O-rhanmoglucoside]						8.14 ± 0.79 mg/mL (≈ 13.3 mM)	353 ± 31.2 mg/mL (≈ 578 mM)	149 ± 2.61 mg/mL (≈ 244 mM)	122 ± 1.45 mg/mL (≈ 199 mM)	10.9 ± 1.7 mg/mL	4.78 ± 0.84 mg/mL	< 0.001 mg/mL	solubility ([1]; water, solvent H2O, n = 3, read-out: solubility in H2O): 0.028 mg/mL (≈ 0.0459 mM); solubility ([2]; organic solvent or mixture, Solubility in Sucrose + Choline chloride): 2.41 ± 0.18 mg/mL
